The test system of one data set is BT-474. Nature of the data set: In vitro cytotoxicity assay (MTT). The class given is cell-based, human. The following applies: 6 days incubation. An excerpt: (§1) Human cancer cell lines used in the present project were purchased from either the American Type Culture Collection (ATCC), The Leibniz Institute DSMZ German Collection of Microorganisms and Cell Cultures GmbH (DSMZ) or the European Collection of Authenticated Cell Cultures (ECACC). For use in experiments, cells were cultivated following good and established cell culture practices, following instructions from the original ATCC/DSMZ/ECACC supplier for cell culture media & supplement, cryopreservation, and subculturing procedures. Cells were incubated under a 5% CO2 atmosphere at 37°C for no longer than 2 months.
(§2) In vitro cytotoxicity of compounds of the disclosure was assessed on several cancerous human cell lines. Cells were plated in 96-well plates at an appropriate density depending on the cell line (between 1000 and 10 000 cells/well in 100µL of appropriate culture media) and incubated at 37°C for 24 hours. Serial dilutions of the tested compound previously dissolved in culture media (50µL) were added, and incubation was carried at 37°C out for 6 days. MTT (5mg/mL in PBS, 20µL, Sigma-Aldrich) was added into the wells, and incubation was continued for 1 to 4 hours at 37°C. Culture media was then carefully removed, and well content was homogeneously dissolved with acidified isopropanol. Absorbance values were measured on a microplate reader using a wavelength of 570 nm (with a reference wavelength of 690 nm). The IC50 concentration values compared to untreated control cells were determined using inhibition dose response curve fitting (GraphPad Prism 9). Exatecan mesylate (cat#HY-13631A) and CR8 (CAS# 294646-77-8; cat#HY-18340) were purchased from MedChemExpress (China).

The subject of another data set is JIMT-1. Nature of the data set: In vitro cytotoxicity assay (MTT). The class given is cell-based, human. The following applies: 6 days incubation.
Text: as §1, §2

For the next data set, the system named is MDA-MB-231. Nature of the data set: In vitro cytotoxicity assay (MTT). The class given is cell-based, human. The following applies: 6 days incubation.
Text: as §1, §2

For the next data set, the system named is MDA-MB-453. Nature of the data set: In vitro cytotoxicity assay (MTT). The following applies: 6 days incubation. The class given is cell-based, human.
Text: as §1, §2

The test system of another data set is NCI-N87. Nature of the data set: In vitro cytotoxicity assay (MTT). The class given is cell-based, human. The following applies: 6 days incubation.
Text: as §1, §2

The test system of a further data set is SKBR-3. Put plainly: In vitro cytotoxicity assay (MTT). Format: cell-based, human. The following applies: 6 days incubation.
Text: as §1, §2

For another data set, the target named is T1, CycK (Homo sapiens, UniProt O75909).
T1 construct: endogenous in cells; host or cells: JIMT-1
Nature of the data set: CycK protein quantification by Western Blot in JIMT-1 cells. The class given is cell-based. The following applies: 2h treatment, 10nM. How it is done: 1×10^6 JIMT-1 cells were plated in 3mL of DMEM/FBS 90:10 (v/v) in 6-well plates and incubated overnight. Cells were treated with the compound 2384 of the invention with or without the proteasome inhibitor MG-132 (MedChemExpress, Cat HY-13259) for 2h. Cells were harvested, and protein were extracted using complete RIPA buffer (RIPA buffer, 1 mM DTT, 1M NaF, 100 mM sodium orthovanadate, phosphatase inhibitor buffer and protease inhibitors) for 1 hour on ice. Lysate were centrifuged 15min at 12 000g at 4°C. and proteins were mixed with 4x Laemmli Sample Buffer (Bio-Rad), heated at 95 °C for 5 mins and separated by SDS PAGE (PROTEAN TGX Stain-Free Gels, Bio-Rad). Proteins were then transferred onto PVDF membrane (iBlot®2 PVDF stacks, Invitrogen) using the iBlot2 device (Invitrogen) and blocked with TBS buffer (Intercept® Blocking Buffer, LI-COR Biosciences). Primary antibodies were incubated overnight at 4°C and secondary antibodies (IRDye Infrared Dyes from LI-COR Biosciences) 1 hour at room temperature. Used primary antibody were: anti-CycK (cat#A301-939A, Bethyl Laboratories, dil. 1:1000) and anti-β-actin (cat#A5441, Sigma-Aldrich, dil. 1:5000). Membranes were scanned using a c500 Imaging System (Azure Biosystems) and densitometric quantification were performed using imaged software. Protein levels were normalized against β-actin.
Background: In western blotting, separated proteins are transferred to a membrane and probed.

Another data set concerns JIMT-1 cells. Nature of the data set: Cell cycle arrest assessment (propidium iodide, flow cytometry). Format: cell-based, human. How it is done:
1×10^6 JIMT-1 cells were plated in 3mL of DMEM/FBS 90:10 (v/v) in 6-well plates and incubated overnight. Cells were treated with the compound 2384 of the invention or with CR8 for 24h. Cells were then harvested and washed three times with PBS. Cells were suspended into 300µL of propidium iodide working solution (0.05mg/mL) and incubated for 45 minutes at 4°C in the dark. Analysis was performed using a BD Fortessa flow cytometer controlled by BD FACSDiva software (BD Biosciences) and data were analyzed using FlowJo software (BD Bioscience).
(In general: In flow cytometry, cells or beads pass a laser one at a time.)

Data set [1] relates to panel of human cancer cell lines. Nature of the data set: In vitro cytotoxicity assay (MTT), panel of cell lines. The class given is cell-based. Conditions: panel of human cancer cell lines, in words.
Text: as §1, §2

The values that follow come from patent EP4512806A1, “MOLECULAR GLUE DEGRADERS AND USES THEREOF” (Mablink Bioscience, priority 2023, dated 2025).

SMILES strings stand for the structures.

T1 sequence (O75909 whole entry): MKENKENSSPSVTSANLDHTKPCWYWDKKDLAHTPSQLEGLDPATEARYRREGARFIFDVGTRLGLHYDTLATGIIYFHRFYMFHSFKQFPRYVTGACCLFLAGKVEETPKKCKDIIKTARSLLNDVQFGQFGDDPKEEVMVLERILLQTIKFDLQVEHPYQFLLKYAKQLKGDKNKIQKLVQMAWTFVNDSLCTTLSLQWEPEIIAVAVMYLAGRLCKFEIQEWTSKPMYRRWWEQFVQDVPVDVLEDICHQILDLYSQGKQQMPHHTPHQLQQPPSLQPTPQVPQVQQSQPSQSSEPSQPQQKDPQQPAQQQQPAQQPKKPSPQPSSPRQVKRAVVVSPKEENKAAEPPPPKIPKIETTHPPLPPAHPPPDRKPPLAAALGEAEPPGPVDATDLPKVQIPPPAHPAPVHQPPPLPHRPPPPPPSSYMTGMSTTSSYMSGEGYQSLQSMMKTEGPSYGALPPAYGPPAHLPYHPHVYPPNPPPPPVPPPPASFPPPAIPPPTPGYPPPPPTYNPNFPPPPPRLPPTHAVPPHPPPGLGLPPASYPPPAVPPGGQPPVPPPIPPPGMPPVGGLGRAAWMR
T1 sequence (Q9NYV4 whole entry partner): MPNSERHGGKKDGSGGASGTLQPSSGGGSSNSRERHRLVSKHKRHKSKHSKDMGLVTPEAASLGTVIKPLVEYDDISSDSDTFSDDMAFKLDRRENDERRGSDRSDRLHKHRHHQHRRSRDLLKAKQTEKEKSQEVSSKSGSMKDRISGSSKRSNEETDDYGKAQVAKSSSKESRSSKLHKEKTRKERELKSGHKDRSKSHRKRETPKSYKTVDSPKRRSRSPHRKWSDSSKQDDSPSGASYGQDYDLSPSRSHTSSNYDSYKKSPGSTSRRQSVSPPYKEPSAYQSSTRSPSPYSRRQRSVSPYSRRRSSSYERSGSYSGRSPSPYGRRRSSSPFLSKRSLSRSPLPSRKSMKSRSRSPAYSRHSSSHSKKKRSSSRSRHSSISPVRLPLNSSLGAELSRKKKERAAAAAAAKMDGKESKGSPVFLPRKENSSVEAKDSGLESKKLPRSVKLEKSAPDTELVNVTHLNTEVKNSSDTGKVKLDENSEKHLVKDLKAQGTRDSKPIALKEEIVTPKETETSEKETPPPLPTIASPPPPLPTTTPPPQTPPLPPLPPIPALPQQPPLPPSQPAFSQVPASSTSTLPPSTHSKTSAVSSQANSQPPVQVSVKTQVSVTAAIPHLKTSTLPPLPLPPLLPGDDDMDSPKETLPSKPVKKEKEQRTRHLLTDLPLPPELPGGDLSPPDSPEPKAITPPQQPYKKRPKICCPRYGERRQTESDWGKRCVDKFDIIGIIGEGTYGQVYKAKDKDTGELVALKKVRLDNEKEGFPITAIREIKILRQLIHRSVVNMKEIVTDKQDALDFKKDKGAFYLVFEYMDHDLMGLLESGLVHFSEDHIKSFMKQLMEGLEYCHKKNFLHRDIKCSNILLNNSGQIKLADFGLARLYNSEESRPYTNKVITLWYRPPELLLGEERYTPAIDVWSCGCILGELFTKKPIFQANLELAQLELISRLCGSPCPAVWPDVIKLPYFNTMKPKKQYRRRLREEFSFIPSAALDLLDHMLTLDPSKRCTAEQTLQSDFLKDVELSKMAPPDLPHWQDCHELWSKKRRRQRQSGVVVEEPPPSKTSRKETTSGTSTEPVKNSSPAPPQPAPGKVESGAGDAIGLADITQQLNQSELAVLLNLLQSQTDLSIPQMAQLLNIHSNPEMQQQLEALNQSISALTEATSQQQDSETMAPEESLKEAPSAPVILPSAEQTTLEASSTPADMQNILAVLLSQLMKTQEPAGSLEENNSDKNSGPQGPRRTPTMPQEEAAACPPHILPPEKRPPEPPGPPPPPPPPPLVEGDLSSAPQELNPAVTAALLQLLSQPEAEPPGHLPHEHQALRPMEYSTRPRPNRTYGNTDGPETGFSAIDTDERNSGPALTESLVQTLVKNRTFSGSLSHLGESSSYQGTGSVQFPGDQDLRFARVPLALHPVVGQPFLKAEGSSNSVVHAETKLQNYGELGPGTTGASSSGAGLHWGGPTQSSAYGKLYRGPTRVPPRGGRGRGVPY
T1 sequence (Q16531 whole entry partner): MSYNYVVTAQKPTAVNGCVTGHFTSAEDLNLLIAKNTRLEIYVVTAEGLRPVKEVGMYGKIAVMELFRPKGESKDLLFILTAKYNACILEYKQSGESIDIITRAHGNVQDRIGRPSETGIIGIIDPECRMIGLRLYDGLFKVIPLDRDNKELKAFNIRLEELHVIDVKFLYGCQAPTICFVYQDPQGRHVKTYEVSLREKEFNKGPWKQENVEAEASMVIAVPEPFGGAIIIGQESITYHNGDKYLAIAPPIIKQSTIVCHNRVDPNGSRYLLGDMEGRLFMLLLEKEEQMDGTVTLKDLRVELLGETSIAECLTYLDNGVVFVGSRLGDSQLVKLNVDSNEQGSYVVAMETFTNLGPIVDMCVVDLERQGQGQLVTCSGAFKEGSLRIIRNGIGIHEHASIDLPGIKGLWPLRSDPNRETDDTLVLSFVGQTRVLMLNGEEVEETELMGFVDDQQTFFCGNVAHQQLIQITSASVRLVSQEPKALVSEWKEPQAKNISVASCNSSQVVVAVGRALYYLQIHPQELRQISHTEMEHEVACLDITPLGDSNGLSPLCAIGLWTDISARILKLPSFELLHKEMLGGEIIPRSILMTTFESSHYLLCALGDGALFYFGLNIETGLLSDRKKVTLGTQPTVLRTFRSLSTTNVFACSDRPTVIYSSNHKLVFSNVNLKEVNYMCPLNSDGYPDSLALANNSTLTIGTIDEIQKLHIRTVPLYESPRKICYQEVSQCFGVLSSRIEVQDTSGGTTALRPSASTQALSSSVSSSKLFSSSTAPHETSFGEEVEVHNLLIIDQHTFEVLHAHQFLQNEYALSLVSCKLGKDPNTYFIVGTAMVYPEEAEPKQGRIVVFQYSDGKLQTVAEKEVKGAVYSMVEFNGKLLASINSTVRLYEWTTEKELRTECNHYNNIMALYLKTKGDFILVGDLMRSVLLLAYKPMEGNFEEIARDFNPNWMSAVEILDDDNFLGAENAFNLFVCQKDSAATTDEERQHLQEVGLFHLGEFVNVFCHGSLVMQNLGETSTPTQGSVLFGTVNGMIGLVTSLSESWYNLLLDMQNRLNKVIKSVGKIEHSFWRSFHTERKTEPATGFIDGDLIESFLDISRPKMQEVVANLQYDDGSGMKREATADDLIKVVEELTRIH

For `CC[C@H](CO)Nc1nc(NCc2ccc(-c3ccccn3)cc2)c2ncn(C(C)C)c2n1` [CR8, reference compound], the IC50 – broadly, the midpoint of a concentration-inhibition curve – was found to be 18.4 nM in the data set on BT-474; 25.2 nM in the data set with JIMT-1; 10.4 nM in the data set on MDA-MB-231; 40.3 nM in the data set on MDA-MB-453; 62.2 nM with NCI-N87; 30.6 nM in the data set with SKBR-3. Also, the CycK degradation entry on CycK was “no CycK was observed”. The “cell cycle analysis (propidium iodide)” value in the data set on JIMT-1 cells (24h, 50 nM) is “arrest in G2/M phase”; in the data set with JIMT-1 cells (24h, 2, 5, and 10 nM) it was “no impact on cell cycle”. The “in vitro cytotoxic potency” value in [1] is listed as “high nanomolar range”.
